Reference: a compilation of properties of binary mixtures (doi:10.1016/j.jct.2009.06.023)

Experiment: xn = mol fraction of the nth substance listed
Conditions: 101 kPa

CCCC[n+]1ccn(C)c1.O=[N+]([O-])[O-] + CCCCO
viscosity [mPa·s]
Conditions | x2 = 0.129 | x2 = 0.26 | x2 = 0.361 | x2 = 0.456 | x2 = 0.565 | x2 = 0.65 | x2 = 0.753 | x2 = 0.848
283.15 K | 232 | 125 | 75.5 | – | 29 | 19.86 | 11.42 | 7.82
288.15 K | 170.6 | – | 58.8 | 38.34 | – | 16.11 | 9.74 | 6.78
293.15 K | 126.9 | 68.4 | 46.54 | 31.1 | – | 13.67 | 8.41 | –
298.15 K | – | 53.94 | 37.64 | – | – | 11.74 | 7.28 | 5.12
303.15 K | 70.8 | – | 30.76 | 21.48 | – | 10.17 | 6.35 | 4.52
308.15 K | – | – | 25.6 | 18.23 | 12.37 | – | – | 3.98
313.15 K | 45.28 | 29.24 | – | 15.59 | – | – | – | 3.56
318.15 K | 37.11 | – | 18.41 | 13.52 | – | 6.94 | 4.38 | 3.19
323.15 K | 30.72 | 20.83 | – | 11.81 | 8.33 | 6.15 | – | 2.87
328.15 K | 25.86 | 17.89 | 13.75 | 10.37 | 7.37 | 5.52 | 3.5 | 2.6
333.15 K | 21.95 | 15.46 | – | 9.18 | – | 4.93 | 3.17 | 2.37

CCCC[n+]1ccn(C)c1.O=[N+]([O-])[O-] + CCO
viscosity [mPa·s]
Conditions | x2 = 0.11 | x2 = 0.254 | x2 = 0.352 | x2 = 0.447 | x2 = 0.556 | x2 = 0.663 | x2 = 0.748 | x2 = 0.852
283.15 K | 260 | 120.4 | 66 | – | 21.24 | 10.88 | 7.45 | 3.9
288.15 K | 190 | 90.7 | – | 28.43 | 17.96 | – | – | 3.47
293.15 K | 139.3 | – | 41.09 | 23.18 | 15.21 | 8.84 | – | 3.08
298.15 K | – | 53.62 | 32.83 | 19.16 | 13.06 | – | – | 2.75
303.15 K | 86.8 | 43.08 | 26.28 | – | 11.34 | 6.71 | 4.28 | –
308.15 K | – | 35.32 | – | 13.73 | 9.83 | – | 3.76 | 2.31
313.15 K | – | – | 17.78 | 11.88 | 9.05 | 5 | 3.38 | 2.13
318.15 K | 38.81 | – | 15.48 | 10.26 | 8.02 | 4.49 | 3.08 | –
323.15 K | 32.11 | 20.84 | 14.06 | 8.91 | 6.96 | 4.04 | 2.81 | 1.75
328.15 K | 26.9 | 17.9 | 12.51 | – | 6.08 | 3.7 | 2.57 | 1.65
333.15 K | 22.91 | – | 10.88 | 7.7 | 5.49 | 3.39 | 2.38 | 1.59

CCCC[n+]1ccn(C)c1.O=[N+]([O-])[O-] + CCCO
viscosity [mPa·s]
Conditions | x2 = 0.121 | x2 = 0.257 | x2 = 0.364 | x2 = 0.471 | x2 = 0.554 | x2 = 0.673 | x2 = 0.755 | x2 = 0.857
283.15 K | 243 | 125.8 | 72.5 | 42.71 | 27.88 | 15.61 | 10.26 | 6.16
288.15 K | – | 95.7 | 56.76 | – | 23 | 13.2 | 8.83 | 5.29
293.15 K | 130.9 | 68.2 | 45.1 | 28.35 | 19.19 | – | 7.6 | 4.64
298.15 K | 99.8 | 53.67 | 36.43 | 23.48 | 16.29 | – | 6.56 | 4.05
303.15 K | 74 | 43.04 | 29.92 | 19.71 | 13.94 | 8.54 | 5.77 | 3.59
308.15 K | 58.48 | 35.02 | 24.93 | – | 12.03 | 7.43 | 5.04 | 3.21
313.15 K | 47.07 | 28.93 | – | 14.44 | 10.5 | 6.49 | 4.49 | 2.87
318.15 K | 38.59 | 24.21 | 17.89 | – | – | 5.78 | 3.97 | 2.59
323.15 K | – | 20.58 | 15.41 | – | 8.16 | 5.09 | 3.58 | 2.35
328.15 K | 26.75 | 17.65 | 13.41 | – | 7.2 | 4.58 | – | –
333.15 K | 22.73 | 15.31 | 11.77 | 8.61 | – | 4.14 | 2.94 | 1.96
